Here are results for 28 compounds from patent US9376436B2, “2-(pyridin-2yl)-1, 7-diaza-spiro [4.4] nonane-6-one compound as voltage-gated sodium channels modulators” (CONVERGENCE PHARMACEUTICALS LIMITED, priority 2011, dated 2016).

In this experiment the target is T1, hNaV1.7 (Homo sapiens, UniProt Q15858).
T1 construct: expressed in transfected cells; host or cells: HEK293
Nature of the experiment: QPatch NaV1.7 assay (whole-cell patch clamp, QPatch16x). As to conditions: HEK293-hNaV1.7 cells. In kind it is cell-based. In a few lines: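 Automated whole-cell recordings in hNaV1.7-expressing HEK293 cells, holding at either −90 mV (mostly closed channels) or the half-inactivation voltage. Compounds applied cumulatively at four concentrations for 120 s each; peak current on 20 ms depolarisation to 0 mV fitted by Hill equation to yield pIC50.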
In general terms: Patch clamp records ionic current or voltage across a cell membrane.

Where [1] appears, read: holding voltage V1/2 SSI (half of channels inactivated), read-out: QP Nav1.7 SSI vhalf pIC50 (converted).
The mark [2] stands for this setting: holding voltage −90 mV (most channels closed), read-out: QP Nav1.7 −90 mV pIC50 (converted).

Each structure is given as a SMILES string. Counter-ions that a name gives are not always drawn. Like-named read-outs stand apart in the source and are kept apart here.

T1 sequence (Q15858 whole entry): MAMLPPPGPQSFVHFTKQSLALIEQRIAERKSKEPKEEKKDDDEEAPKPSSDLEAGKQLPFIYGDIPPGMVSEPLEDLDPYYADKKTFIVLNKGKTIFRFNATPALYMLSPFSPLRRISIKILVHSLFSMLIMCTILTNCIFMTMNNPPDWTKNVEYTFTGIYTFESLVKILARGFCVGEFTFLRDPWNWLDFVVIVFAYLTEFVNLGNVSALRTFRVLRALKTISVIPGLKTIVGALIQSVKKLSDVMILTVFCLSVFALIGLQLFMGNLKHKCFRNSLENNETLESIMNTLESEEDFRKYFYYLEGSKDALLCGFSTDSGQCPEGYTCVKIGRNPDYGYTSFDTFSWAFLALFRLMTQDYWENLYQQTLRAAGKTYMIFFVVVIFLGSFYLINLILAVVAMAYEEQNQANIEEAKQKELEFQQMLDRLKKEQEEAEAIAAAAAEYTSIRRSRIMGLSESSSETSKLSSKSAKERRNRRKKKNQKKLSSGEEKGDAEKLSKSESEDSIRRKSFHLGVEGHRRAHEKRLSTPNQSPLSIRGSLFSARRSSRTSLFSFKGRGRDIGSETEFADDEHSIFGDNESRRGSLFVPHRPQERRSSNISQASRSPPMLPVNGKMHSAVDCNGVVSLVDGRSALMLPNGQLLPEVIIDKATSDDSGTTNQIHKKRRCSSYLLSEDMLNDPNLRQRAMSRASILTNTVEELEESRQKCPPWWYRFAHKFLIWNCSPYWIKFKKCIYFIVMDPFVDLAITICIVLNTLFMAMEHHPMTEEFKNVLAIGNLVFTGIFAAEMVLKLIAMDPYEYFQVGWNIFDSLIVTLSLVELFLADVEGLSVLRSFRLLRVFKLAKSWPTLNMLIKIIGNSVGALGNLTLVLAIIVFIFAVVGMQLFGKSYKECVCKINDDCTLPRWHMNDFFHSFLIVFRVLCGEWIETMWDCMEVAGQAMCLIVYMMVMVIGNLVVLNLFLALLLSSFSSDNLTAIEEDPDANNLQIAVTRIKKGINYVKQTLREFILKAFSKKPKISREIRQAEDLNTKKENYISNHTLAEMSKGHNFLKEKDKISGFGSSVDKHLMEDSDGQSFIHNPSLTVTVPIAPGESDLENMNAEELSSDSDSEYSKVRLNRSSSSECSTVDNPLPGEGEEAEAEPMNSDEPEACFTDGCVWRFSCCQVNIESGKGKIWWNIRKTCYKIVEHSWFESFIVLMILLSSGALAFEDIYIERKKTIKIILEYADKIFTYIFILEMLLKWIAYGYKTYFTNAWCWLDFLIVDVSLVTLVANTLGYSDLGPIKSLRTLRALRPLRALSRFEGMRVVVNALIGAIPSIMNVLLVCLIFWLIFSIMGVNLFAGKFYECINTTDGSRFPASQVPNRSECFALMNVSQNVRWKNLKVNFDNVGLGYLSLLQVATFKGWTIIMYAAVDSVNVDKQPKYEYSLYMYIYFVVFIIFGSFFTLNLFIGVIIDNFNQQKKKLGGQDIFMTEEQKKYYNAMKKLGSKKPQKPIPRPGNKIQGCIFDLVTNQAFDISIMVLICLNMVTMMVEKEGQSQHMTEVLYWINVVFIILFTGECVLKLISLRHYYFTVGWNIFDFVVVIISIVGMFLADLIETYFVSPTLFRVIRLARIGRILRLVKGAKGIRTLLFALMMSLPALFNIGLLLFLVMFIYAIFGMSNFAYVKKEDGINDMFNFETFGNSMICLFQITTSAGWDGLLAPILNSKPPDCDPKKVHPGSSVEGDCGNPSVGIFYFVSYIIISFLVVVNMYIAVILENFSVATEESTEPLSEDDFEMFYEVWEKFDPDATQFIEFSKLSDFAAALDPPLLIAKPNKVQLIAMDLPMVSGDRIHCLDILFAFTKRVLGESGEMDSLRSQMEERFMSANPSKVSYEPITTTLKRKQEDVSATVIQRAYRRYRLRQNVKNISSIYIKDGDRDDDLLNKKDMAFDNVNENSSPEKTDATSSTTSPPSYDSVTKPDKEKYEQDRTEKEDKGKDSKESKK

On to `Cc1cc(C)cc(-c2ccnc([C@H]3CC[C@@]4(CCN(C)C4=O)N3)c2)c1` [Example 174, (2R,5S)-2-[4-(3,5-Dimethylphenyl)-2-pyridyl]-7-methyl-1,7-diazaspiro[4.4]nonan-6-one hydrochloride], for which the IC50 is 25.1 µM under setting [1] and 126 µM under setting [2].

With `CCOc1cc(F)c(F)c(-c2ccnc([C@H]3CC[C@@]4(CCN(C)C4=O)N3)c2)c1` [Example 175, (2R,5S)-2-[4-(5-Ethoxy-2,3-difluoro-phenyl)-2-pyridyl]-7-methyl-1,7-diazaspiro[4.4]nonan-6-one hydrochloride], the IC50 by setting is: under setting [1], 15.8 µM; under setting [2], 200 µM.

Turning to `CN1CC[C@@]2(CC[C@H](c3cc(-c4cc(OC(F)(F)F)ccc4F)ccn3)N2)C1=O` [Example 176, (2R,5S)-2-[4-[2-Fluoro-5-(trifluoromethoxy)phenyl]-2-pyridyl]-7-methyl-1,7-diazaspiro[4.4]nonan-6-one hydrochloride], the IC50 under setting [1] is 20 µM and the IC50 under setting [2] is 200 µM.

For `CCCOc1ccc(F)c(-c2ccnc([C@H]3CC[C@@]4(CCN(C)C4=O)N3)c2)c1` [Example 177, (2R,5S)-2-[4-(2-Fluoro-5-propoxy-phenyl)-2-pyridyl]-7-methyl-1,7-diazaspiro[4.4]nonan-6-one hydrochloride], the IC50 under setting [1] is 0.398 µM and the IC50 under setting [2] was 12.6 µM.

As to `CCOc1ccc(C)c(-c2ccnc([C@H]3CC[C@@]4(CCN(C)C4=O)N3)c2)c1` [Example 178, (2R,5S)-2-[4-(5-Ethoxy-2-methyl-phenyl)-2-pyridyl]-7-methyl-1,7-diazaspiro[4.4]nonan-6-one hydrochloride], the IC50 by setting is: under setting [1], 25.1 µM; under setting [2], 631 µM.

With `CCCOc1cccc(-c2ccnc([C@H]3CC[C@@]4(CCN(C)C4=O)N3)c2)c1` [Example 179, (2R,5S)-7-Methyl-2-[4-(3-propoxyphenyl)-2-pyridyl]-1,7-diazaspiro[4.4]nonan-6-one hydrochloride], the IC50 under setting [1] is 0.794 µM and the IC50 under setting [2] is 31.6 µM.

As for `CC(C)Oc1ccc(-c2ccnc([C@H]3CC[C@@]4(CCN(C)C4=O)N3)c2)cc1C#N` [Example 180, 2-Isopropoxy-5-[2-[(2R,5S)-7-methyl-6-oxo-1,7-diazaspiro[4.4]nonan-2-yl]-4-pyridyl]benzonitrile hydrochloride], the IC50 is 20 µM under setting [1] and 1000 µM under setting [2].

Consider `CCOc1ccc(Cl)c(-c2ccnc([C@H]3CC[C@@]4(CCN(C)C4=O)N3)c2)c1` [Example 181, (2R,5S)-2-[4-(2-Chloro-5-ethoxy-phenyl)-2-pyridyl]-7-methyl-1,7-diazaspiro[4.4]nonan-6-one hydrochloride], for which the IC50 reads like this: under setting [1], 5.01 µM; under setting [2], 100 µM.

As to `Cc1ccn(-c2ccc(F)c(-c3ccnc([C@H]4CC[C@@]5(CCN(C)C5=O)N4)c3)c2)n1` [Example 182, (2R,5S)-2-[4-[2-Fluoro-5-(3-methylpyrazol-1-yl)phenyl]-2-pyridyl]-7-methyl-1,7-diazaspiro[4.4]nonan-6-one hydrochloride], the IC50 was 15.8 µM under setting [1] and 100 µM under setting [2].

Regarding `Cc1cnn(-c2ccc(F)c(-c3ccnc([C@H]4CC[C@@]5(CCN(C)C5=O)N4)c3)c2)c1` [Example 183, (2R,5S)-2-[4-[2-Fluoro-5-(4-methylpyrazol-1-yl)phenyl]-2-pyridyl]-7-methyl-1,7-diazaspiro[4.4]nonan-6-one hydrochloride], the IC50 under setting [1] was 3.16 µM and the IC50 under setting [2] was 63.1 µM.

Take `CN1CC[C@@]2(CC[C@H](c3cc(-c4cc(-n5cccn5)ccc4F)ccn3)N2)C1=O` [Example 184, (2R,5S)-2-[4-(2-Fluoro-5-pyrazol-1-yl-phenyl)-2-pyridyl]-7-methyl-1,7-diazaspiro[4.4]nonan-6-one hydrochloride]: the IC50 reads like this: under setting [1], 10 µM; under setting [2], 126 µM.

With `CN1CC[C@@]2(CC[C@H](c3cc(-c4cc(OC5CC5)ccc4F)ccn3)N2)C1=O` [Example 185, (2R,5S)-2-[4-[5-(Cyclopropoxy)-2-fluoro-phenyl]-2-pyridyl]-7-methyl-1,7-diazaspiro[4.4]nonan-6-one hydrochloride], the IC50 was 7.94 µM under setting [1] and 63.1 µM under setting [2].

As to `CN1CC[C@@]2(CC[C@H](c3cc(-c4cc5[nH]ncc5cc4F)ccn3)N2)C1=O` [Example 186, (2R,5S)-2-[4-(5-Fluoro-1H-indazol-6-yl)-2-pyridyl]-7-methyl-1,7-diazaspiro[4.4]nonan-6-one hydrochloride], the IC50 under setting [1] is 158 µM and the IC50 under setting [2] was 6310 µM.

As to `CN1CC[C@@]2(CC[C@H](c3cc(-c4cccc5[nH]ncc45)ccn3)N2)C1=O` [Example 187, (2R,5S)-2-[4-(1H-Indazol-4-yl)-2-pyridyl]-7-methyl-1,7-diazaspiro[4.4]nonan-6-one hydrochloride], the IC50 is, setting by setting: under setting [1], 200 µM; under setting [2], 1000 µM.

On to `COCc1ccc(F)c(-c2ccnc([C@H]3CC[C@@]4(CCN(C)C4=O)N3)c2)c1` [Example 188, (2R,5S)-2-[4-[2-Fluoro-5-(methoxymethyl)phenyl]-2-pyridyl]-7-methyl-1,7-diazaspiro[4.4]nonan-6-one hydrochloride], for which the IC50 reads like this: under setting [1], 100 µM; under setting [2], 501 µM.

`CCOCc1ccc(F)c(-c2ccnc([C@H]3CC[C@@]4(CCN(C)C4=O)N3)c2)c1` [Example 189, (2R,5S)-2-[4-[5-(Ethoxymethyl)-2-fluoro-phenyl]-2-pyridyl]-7-methyl-1,7-diazaspiro[4.4]nonan-6-one hydrochloride]: the IC50 is 25.1 µM under setting [1] and 251 µM under setting [2].

Turning to `CCOc1ccc(-c2ccnc([C@H]3CC[C@@]4(CCN(C)C4=O)N3)c2)cc1OCC` [Example 190, (2R,5S)-2-[4-(3,4-Diethoxyphenyl)-2-pyridyl]-7-methyl-1,7-diazaspiro[4.4]nonan-6-one hydrochloride], the IC50 under setting [1] is 100 µM and the IC50 under setting [2] was 10000 µM.

With `CN1CC[C@@]2(CC[C@H](c3cc(-c4cc(-c5cnn(C)c5)ccc4F)ccn3)N2)C1=O` [Example 191, (2R,5S)-2-[4-[2-Fluoro-5-(1-methylpyrazol-4-yl)phenyl]-2-pyridyl]-7-methyl-1,7-diazaspiro[4.4]nonan-6-one hydrochloride], the IC50 under setting [1] is 25.1 µM and the IC50 under setting [2] is 398 µM.

As for `CN1CC[C@@]2(CC[C@H](c3cc(-c4cc(-c5ccnn5C)ccc4F)ccn3)N2)C1=O` [Example 192, (2R,5S)-2-[4-[2-Fluoro-5-(2-methylpyrazol-3-yl)phenyl]-2-pyridyl]-7-methyl-1,7-diazaspiro[4.4]nonan-6-one hydrochloride], the IC50 under setting [1] was 1000 µM.

Take `Cc1ccnn1-c1ccc(F)c(-c2ccnc([C@H]3CC[C@@]4(CCN(C)C4=O)N3)c2)c1` [Example 193, (2R,5S)-2-[4-[2-Fluoro-5-(5-methylpyrazol-1-yl)phenyl]-2-pyridyl]-7-methyl-1,7-diazaspiro[4.4]nonan-6-one hydrochloride]: the IC50 was 50.1 µM under setting [1] and 5010 µM under setting [2].

For the compound `CC(C)COc1cc(-c2ccnc([C@H]3CC[C@@]4(CCN(C)C4=O)N3)c2)ccc1F` [Example 194, (2R,5S)-2-[4-(4-Fluoro-3-isobutoxy-phenyl)-2-pyridyl]-7-methyl-1,7-diazaspiro[4.4]nonan-6-one hydrochloride], the IC50 was 1 µM under setting [1] and 15.8 µM under setting [2].

With `COc1ccc(F)c(-c2cc(C)nc([C@H]3CC[C@@]4(CCN(C)C4=O)N3)c2)c1` [Example 195, (2R,5S)-2-[4-(2-Fluoro-5-methoxy-phenyl)-6-methyl-2-pyridyl]-7-methyl-1,7-diazaspiro[4.4]nonan-6-one hydrochloride], the IC50 is, setting by setting: under setting [1], 5.01 µM; under setting [2], 100 µM.

Regarding `CCCOc1ccc(F)c(-c2cc(C)nc([C@H]3CC[C@@]4(CCN(C)C4=O)N3)c2)c1` [Example 196, (2R,5S)-2-[4-(2-Fluoro-5-propoxy-phenyl)-6-methyl-2-pyridyl]-7-methyl-1,7-diazaspiro[4.4]nonan-6-one hydrochloride], the IC50 under setting [1] is 0.1 µM and the IC50 under setting [2] is 1.58 µM.

Regarding `CCOc1cc(F)cc(-c2cc(C)nc([C@H]3CC[C@@]4(CCN(C)C4=O)N3)c2)c1` [Example 197, (2R,5S)-2-[4-(3-Ethoxy-5-fluoro-phenyl)-6-methyl-2-pyridyl]-7-methyl-1,7-diazaspiro[4.4]nonan-6-one hydrochloride], the IC50 was 5.01 µM under setting [1] and 50.1 µM under setting [2].

Consider `Cc1cc(-c2cc(OC(C)C)ccc2F)cc([C@H]2CC[C@@]3(CCN(C)C3=O)N2)n1` [Example 198, (2R,5S)-2-[4-(2-Fluoro-5-isopropoxy-phenyl)-6-methyl-2-pyridyl]-7-methyl-1,7-diazaspiro[4.4]nonan-6-one hydrochloride], for which the IC50 is 5.01 µM under setting [1] and 63.1 µM under setting [2].

In the case of `CCOc1cccc(-c2cc(C)nc([C@H]3CC[C@@]4(CCN(C)C4=O)N3)c2)c1F` [Example 199, (2R,5S)-2-[4-(3-Ethoxy-2-fluoro-phenyl)-6-methyl-2-pyridyl]-7-methyl-1,7-diazaspiro[4.4]nonan-6-one hydrochloride], the IC50 under setting [1] is 25.1 µM and the IC50 under setting [2] is 158 µM.

For the compound `Cc1cc(-c2cc(OC(F)(F)F)ccc2F)cc([C@H]2CC[C@@]3(CCN(C)C3=O)N2)n1` [Example 200, (2R,5S)-2-[4-[2-Fluoro-5-(trifluoromethoxy)phenyl]-6-methyl-2-pyridyl]-7-methyl-1,7-diazaspiro[4.4]nonan-6-one hydrochloride], the IC50 by setting is: under setting [1], 2 µM; under setting [2], 31.6 µM.

On to `CCCOc1ccc(F)c(-c2cc(C)nc([C@@H]3CC[C@]4(CCN(C)C4=O)N3)c2)c1` [Example 201, (2S,5R)-2-[4-(2-Fluoro-5-propoxy-phenyl)-6-methyl-2-pyridyl]-7-methyl-1,7-diazaspiro[4.4]nonan-6-one hydrochloride], for which the IC50 is 0.126 µM under setting [1] and 5.01 µM under setting [2].
